The results in this text go back to patent US20250340557A1, “PYRIMIDINE DERIVATIVE” (ASKA PHARMACEUTICAL CO., LTD., priority 2022, published 2025).

The structures appear in SMILES notation. Like-named read-outs stand apart in the source and are kept apart here.

For the experiment, the target named is T1, human mPGES-1 (Homo sapiens, UniProt O14684).
T1 construct: made in house; host or cells: COS-1 cells (transient transfection; microsomal fraction used as enzyme)
T1 sequence (O14684 1-152): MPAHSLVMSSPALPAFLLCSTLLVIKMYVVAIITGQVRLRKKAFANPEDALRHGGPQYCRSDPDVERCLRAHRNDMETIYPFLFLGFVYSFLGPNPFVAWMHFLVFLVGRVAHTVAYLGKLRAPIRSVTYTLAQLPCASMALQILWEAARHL
Kind of experiment: Test for mPGES-1 inhibitory activity (microsomal enzyme, PGE2 EIA). The format is biochemical. To be noted: 4° C., 4 minutes, read-out: h mPGES1 IC50. Put shortly: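 Enzyme source was microsomes from COS-1 cells transiently expressing human mPGES-1, in sodium phosphate pH 7.2 with 2.5 mM GSH, 1 mM EDTA and 2% DMSO final. After a 15 min preincubation with compound at 4 °C, 1 μM PGH2 (final) reacted for 4 min at 4 °C.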

The mark [1] stands for this setting: microsomes from COS-1 cells transfected with human mPGES-1 cDNA, substrate PGH2 1 μM, PGE2 measured by EIA.
The mark [2] stands for this setting: microsomes of COS-1 cells transfected with human mPGES-1 cDNA, PGH2 1 μM, PGE2 by EIA.

The IC50 is the concentration at which inhibition is half-maximal. Turning to `O=c1cc(C(F)(F)F)nc(-c2c(C(F)(F)F)ccc(CNC(=O)[C@H]3CC[C@H](OCc4cccc(C(F)(F)F)c4)CC3)c2F)[nH]1` [Example 112, trans-N-{2-fluoro-3-[6-oxo-4-(trifluoromethyl)-1,6-dihydropyrimidin-2-yl]-4-(trifluoromethyl)benzyl}-4-{[3-(trifluoromethyl)benzyl]oxy}cyclohexane-1-carboxamide], under setting [1], the IC50 was found to be 29 nM.
`O=C(NCc1ccc(C(F)(F)F)c(-c2nc(C(F)(F)F)cc(=O)[nH]2)c1F)c1cccc(Cl)c1Cl` [Example 274, 2,3-dichloro-N-{2-fluoro-3-[6-oxo-4-(trifluoromethyl)-1,6-dihydropyrimidin-2-yl]-4-(trifluoromethyl)benzyl}benzamide]: the IC50 under setting [2] is under 1 nM.
Same read-out and setting: next, `Cc1nc(-c2c(C(F)(F)F)ccc(CNC(=O)[C@H]3C[C@H](OCc4cccc(Cl)c4F)C3)c2F)[nH]c(=O)c1F` [Example 225, trans-3-[(3-chloro-2-fluorobenzyl)oxy]-N-[2-fluoro-3-(5-fluoro-4-methyl-6-oxo-1,6-dihydropyrimidin-2-yl)-4-(trifluoromethyl)benzyl]cyclobutane-1-carboxamide]: under 1 nM.
As to `Cc1nc(-c2c(C(F)(F)F)ccc(CNC(=O)C3CCN(c4ncc(Cl)cc4F)CC3)c2F)[nH]c(=O)c1F` [Example 52, 1-(5-chloro-3-fluoropyridin-2-yl)-N-[2-fluoro-3-(5-fluoro-4-methyl-6-oxo-1,6-dihydropyrimidin-2-yl)-4-(trifluoromethyl)benzyl]piperidine-4-carboxamide], the half-inhibitory concentration (IC50) under setting [1] was determined as 15 nM.
In the case of `O=c1cc(C(F)(F)F)nc(-c2c(C(F)(F)F)ccc(CNC(=O)[C@H]3C[C@H](Oc4ccc(Cl)cc4)C3)c2F)[nH]1` [Example 255, trans-3-(4-chlorophenoxy)-N-{2-fluoro-3-[6-oxo-4-(trifluoromethyl)-1,6-dihydropyrimidin-2-yl]-4-(trifluoromethyl)benzyl}cyclobutane-1-carboxamide], under setting [2], the concentration for half-maximal inhibition (IC50) is 2.8 nM.
Consider `Cc1cc(=O)[nH]c(-c2c(C(F)(F)F)ccc(CNC(=O)C3CCN(c4cccc(C(F)(F)F)c4)CC3)c2F)n1` [Example 94, N-[2-fluoro-3-(4-methyl-6-oxo-1,6-dihydropyrimidin-2-yl)-4-(trifluoromethyl)benzyl]-1-[3-(trifluoromethyl)phenyl]piperidine-4-carboxamide], for which the 50% inhibitory concentration (IC50) under setting [1] was determined as 13 nM.
Same read-out and setting: next, `Cc1cccc2ccc(N3CCC(F)(C(=O)NCc4ccc(C(F)(F)F)c(-c5nc(C(F)(F)F)cc(=O)[nH]5)c4F)CC3)nc12` [Example 15, 4-fluoro-N-{2-fluoro-3-[6-oxo-4-(trifluoromethyl)-1,6-dihydropyrimidin-2-yl]-4-(trifluoromethyl)benzyl}-1-(8-methylquinolin-2-yl)piperidine-4-carboxamide]: under 1 nM; `Cc1nc(-c2c(C(F)(F)F)ccc(CNC(=O)C3CCN(c4ncc(Cl)cc4Cl)CC3)c2F)[nH]c(=O)c1F` [Example 44, 1-(3,5-dichloropyridin-2-yl)-N-[2-fluoro-3-(5-fluoro-4-methyl-6-oxo-1,6-dihydropyrimidin-2-yl)-4-(trifluoromethyl)benzyl]piperidine-4-carboxamide]: under 1 nM; `Cc1cc(=O)[nH]c(-c2c(C(F)(F)F)ccc(CNC(=O)[C@H]3CC[C@H](OCc4cccc(Cl)c4)CC3)c2F)n1` [Example 111, trans-4-[(3-chlorobenzyl)oxy]-N-[2-fluoro-3-(4-methyl-6-oxo-1,6-dihydropyrimidin-2-yl)-4-(trifluoromethyl)benzyl]cyclohexane-1-carboxamide]: 19 nM.
Same read-out and setting: the result for `O=C(NCc1ccc(C(F)(F)F)c(-c2nc(C(F)(F)F)cc(=O)[nH]2)c1F)C1CCN(c2cccc(Cl)c2)CC1` [Example 62, 1-(3-chlorophenyl)-N-{2-fluoro-3-[6-oxo-4-(trifluoromethyl)-1,6-dihydropyrimidin-2-yl]-4-(trifluoromethyl)benzyl}piperidine-4-carboxamide] reads under 1 nM.
